# Results published in ChEMBL document CHEMBL1149511, “Tri-substituted triazoles as potent non-nucleoside inhibitors of the HIV-1 reverse transcriptase” (Bioorg Med Chem Lett, 2006).
# Experiments:
# Type in all cases: functional, cell-based
# [1] = tested on: HeLa; assay: Antiviral activity against wild type HIV1 in HeLa-JC53 cells; details: Homo sapiens
# [2] = tested on: HeLa; assay: Antiviral activity against HIV1 K103N-Y181C mutant in HeLa-JC53 cells
# [3] = tested on: HeLa; assay: Antiviral activity against HIV1 Y188L mutant in HeLa-JC53 cells
Compound,EC50 [1],EC50 [2],EC50 [3]
Cc1ccc(NC(=O)CSc2nnc(C)n2-c2ccc(C(F)(F)F)cc2)c(Cl)c1,0.019 µM,0.23 µM,–
Cc1nnc(SCC(=O)Nc2ccc(S(N)(=O)=O)cc2Cl)n1-c1cc(Br)cc2cccnc12,0.0008 µM,–,0.19 µM
Cc1ccc(-n2c(SCC(=O)Nc3ccc(C)cc3Br)nnc2C2CC2)cc1,–,> 10 µM,–
Cc1cc(-n2c(C)nnc2SCC(=O)Nc2ccccc2Br)c2ccccc2c1C,0.0005 µM,0.031 µM,0.097 µM
Cc1ccc(-n2c(C)nnc2SCC(=O)Nc2ccc(OC(F)(F)F)cc2Br)cc1,0.058 µM,> 10 µM,–
Cc1ccc(-n2c(O)nnc2SCC(=O)Nc2ccc(C)cc2Br)cc1,–,> 10 µM,–
Cc1cc2c(C)ccc(-n3c(C)nnc3SCC(=O)Nc3ccccc3Br)c2cc1C,0.001 µM,–,0.11 µM
Cc1ccc(-n2c(C)nnc2SCC(=O)Nc2ccc(C)cc2Cl)c(C)c1,0.0001 µM,0.06 µM,–
O=C1Nc2ccc(Cl)cc2[C@@](C#CC2CC2)(C(F)(F)F)O1 [EFAVIRENZ],0.0004 µM,0.011 µM,0.073 µM
Cc1ccc(-n2c(C)nnc2SCC(=O)Nc2cccc(C)c2C)cc1,0.06 µM,> 10 µM,–
Cc1ccc(-n2c(C)nnc2SCC(=O)Nc2ccc(C(C)C)cc2Br)cc1,0.14 µM,> 10 µM,–
Cc1ccc(-n2c(C)nnc2SCC(=O)Nc2cccc(Cl)c2)cc1,> 10 µM,> 10 µM,–
Cc1ccc(-n2c(C)nnc2SCC(=O)Nc2ccccc2Cl)cc1,0.0007 µM,0.15 µM,–
Cc1ccc(-n2c(C)nnc2SCC(=O)Nc2ccccc2-c2ccccc2)cc1,> 10 µM,> 10 µM,–
Cc1ccc(NC(=O)CSc2nnc(C)n2-c2c(C)ccc3ccccc23)c(Cl)c1,0.001 µM,0.06 µM,0.2 µM
CCc1ccc(-n2c(C)nnc2SCC(=O)Nc2ccccc2Br)c2ccccc12,0.0005 µM,0.022 µM,0.058 µM
Cc1ccc(-n2c(C)nnc2SCC(=O)Nc2ccccc2Br)cc1,0.0004 µM,0.076 µM,–
Cc1ccc2cccc(C)c2c1-n1c(C)nnc1SCC(=O)Nc1ccccc1Br,0.001 µM,–,0.48 µM
Cc1ccc(-n2c(C)nnc2SCC(=O)Nc2ccc(C)cc2Cl)cc1,0.0009 µM,0.17 µM,–
Cc1ccc2c(C)ccc(-n3c(C)nnc3SCC(=O)Nc3ccccc3Br)c2c1,0.0003 µM,–,0.012 µM
Cc1cc(C)c2ccccc2c1-n1c(C)nnc1SCC(=O)Nc1ccccc1Br,0.001 µM,0.07 µM,0.089 µM

Compound,EC50 [1],EC50 [2],EC50 [3]
CSc1ccccc1NC(=O)CSc1nnc(C)n1-c1ccc(C)cc1,0.0006 µM,0.12 µM,–
Cc1ccc2ccccc2c1-n1c(C)nnc1SCC(=O)Nc1ccccc1Br,0.001 µM,0.065 µM,0.21 µM
Cc1ccc(NC(=O)CSc2nnc(C)n2-c2ccc(C)c3ccccc23)c(Cl)c1,0.001 µM,0.016 µM,0.1 µM
CCc1nnc(SCC(=O)Nc2ccc(C)cc2Br)n1-c1ccc(C)cc1,0.0001 µM,2.5 µM,–
Cc1ccc(NC(=O)CSc2nnc(C)n2-c2cccc(Cl)c2)c(Cl)c1,0.26 µM,–,–
Cc1ccc(-n2c(C)nnc2SCC(=O)Nc2ccc(C)cc2Br)cc1,0.0004 µM,0.1 µM,–
Cc1ccc2c(C)ccc(-n3c(SCC(=O)Nc4ccc(S(N)(=O)=O)cc4Cl)nnc3C(F)(F)F)c2c1,0.006 µM,–,0.035 µM
NS(=O)(=O)c1ccc(NC(=O)CSc2nnc(C(F)(F)F)n2-c2ccc(Cl)c3ccccc23)c(Cl)c1,0.004 µM,–,0.041 µM
CSCc1nnc(SCC(=O)Nc2ccc(C)cc2Br)n1-c1ccc(C)cc1,–,> 10 µM,–
NS(=O)(=O)c1ccc(NC(=O)CSc2nnc(C(F)(F)F)n2-c2cccc3cccnc23)c(Cl)c1,0.002 µM,–,0.18 µM
Cc1nnc(SCC(=O)Nc2ccc(S(N)(=O)=O)cc2Cl)n1-c1ccc(N(C)C)c2ccccc12,0.0005 µM,–,0.088 µM
COc1ccc(-n2c(C)nnc2SCC(=O)Nc2ccc(S(N)(=O)=O)cc2Cl)c2ccccc12,0.0007 µM,–,0.11 µM
Cc1ccc(NC(=O)CSc2nnc(C)n2-c2cc(C)c(C)c3ccccc23)c(Cl)c1,0.001 µM,–,0.16 µM
COC(=O)c1ccc(NC(=O)CSc2nnc(C)n2-c2ccc(C)cc2)c(Cl)c1,0.0004 µM,0.12 µM,–
Cc1ccc2c(C)cccc2c1-n1c(C)nnc1SCC(=O)Nc1ccccc1Br,0.0003 µM,–,0.33 µM
Cc1ccc2cc(Cl)cc(-n3c(C)nnc3SCC(=O)Nc3ccc(S(N)(=O)=O)cc3Cl)c2n1,0.002 µM,–,0.1 µM
Cc1ccc(-n2c(SCC(=O)Nc3ccc(S(N)(=O)=O)cc3Cl)nnc2C(F)(F)F)c2ccccc12,0.0004 µM,–,0.025 µM
Cc1ccc(NC(=O)CSc2nnc(C)n2-c2cccc3cccnc23)c(Cl)c1,0.008 µM,–,5.7 µM
COCc1nnc(SCC(=O)Nc2ccc(C)cc2Br)n1-c1ccc(C)cc1,–,> 10 µM,–
Cc1ccc2cccc(-n3c(C)nnc3SCC(=O)Nc3ccc(S(N)(=O)=O)cc3Cl)c2n1,0.001 µM,–,0.39 µM
Cc1nnc(SCC(=O)Nc2ccc(S(N)(=O)=O)cc2Cl)n1-c1cccc2ccccc12,0.0005 µM,–,0.19 µM

Compound,EC50 [1],EC50 [2],EC50 [3]
Cc1ccc(-n2c(C)nnc2SCC(=O)Nc2ccc(S(N)(=O)=O)cc2Cl)c2ccccc12,0.0002 µM,–,0.02 µM
COc1ccc(-n2c(C)nnc2SCC(=O)Nc2ccccc2Br)c2ccccc12,0.0007 µM,0.093 µM,0.46 µM
Cc1ccc(-n2c(C)nnc2SCC(=O)Nc2ccccc2Br)c2ccccc12,0.0006 µM,0.014 µM,0.069 µM
Cc1nnc(SCC(=O)Nc2ccccc2Br)n1-c1cccc2cccnc12,0.007 µM,–,4.2 µM
Cc1ccc(NC(=O)CSc2nnc(C)n2-c2ccc(Cl)c3ccccc23)c(Cl)c1,0.001 µM,0.19 µM,0.32 µM
COc1ccc(-n2c(SCC(=O)Nc3ccc(S(N)(=O)=O)cc3Cl)nnc2C(F)(F)F)c2ccccc12,0.0004 µM,–,0.014 µM
COc1cc(-n2c(C)nnc2SCC(=O)Nc2ccc(S(N)(=O)=O)cc2Cl)c2ncccc2c1,0.0008 µM,–,0.37 µM
Cc1nnc(SCC(=O)Nc2ccc(S(N)(=O)=O)cc2Cl)n1-c1ccc(Cl)c2ccccc12,0.001 µM,–,0.068 µM
Cc1nnc(SCC(=O)Nc2ccccc2Br)n1-c1ccc(Cl)c2ccccc12,0.0008 µM,0.13 µM,0.2 µM
Cc1ccc2c(C)cc(C)c(-n3c(C)nnc3SCC(=O)Nc3ccc(S(N)(=O)=O)cc3Cl)c2n1,0.0007 µM,–,0.011 µM
Cc1cccc(-n2c(C)nnc2SCC(=O)Nc2ccc(C)cc2Cl)c1,0.11 µM,–,–
CNCc1nnc(SCC(=O)Nc2ccc(C)cc2Br)n1-c1ccc(C)cc1,–,> 10 µM,–
Cc1ccc(-n2c(CO)nnc2SCC(=O)Nc2ccc(C)cc2Br)cc1,–,> 10 µM,–
Cc1ccc(-n2cnnc2SCC(=O)Nc2ccc(C)cc2Br)cc1,0.07 µM,> 10 µM,–
Cc1cc2c(C)cccc2c(-n2c(C)nnc2SCC(=O)Nc2ccccc2Br)c1C,0.0008 µM,–,0.16 µM
Cc1ccc(-n2c(SCC(=O)Nc3ccc(C)cc3Br)nnc2C(C)C)cc1,–,> 10 µM,–
Cc1ccc(-n2c(C)nnc2SCC(=O)Nc2cccc(Cl)c2Cl)cc1,0.0001 µM,0.11 µM,–
Cc1ccc(NC(=O)CSc2nnc(C)n2-c2c(C)cc(C)c3ccccc23)c(Cl)c1,0.001 µM,–,0.09 µM
COc1ccc(-n2c(C)nnc2SCC(=O)Nc2ccc(C)cc2Cl)c2ccccc12,0.001 µM,–,0.24 µM
Cc1ccc(-n2c(C)nnc2SCC(=O)Nc2ccccc2I)cc1,0.0005 µM,0.22 µM,–
Cc1cc2cccc(C)c2c(-n2c(C)nnc2SCC(=O)Nc2ccccc2Br)c1C,0.003 µM,–,0.2 µM

Compound,EC50 [1],EC50 [2],EC50 [3]
CCc1ccc(-n2c(C)nnc2SCC(=O)Nc2ccc(C)cc2Cl)cc1,0.0002 µM,0.06 µM,–
Cc1ccc(-n2c(C)nnc2SCC(=O)Nc2ccc(C#N)cc2Cl)cc1,0.003 µM,0.9 µM,–
Cc1nnc(SCC(=O)Nc2ccccc2Br)n1-c1ccc(N(C)C)c2ccccc12,0.0004 µM,–,0.24 µM
Cc1nnc(SCC(=O)Nc2ccc(S(N)(=O)=O)cc2Cl)n1-c1cccc2cccnc12,0.004 µM,–,2.4 µM
Cc1ccc2cccc(-n3c(SCC(=O)Nc4ccc(S(N)(=O)=O)cc4Cl)nnc3C(F)(F)F)c2n1,0.0006 µM,–,0.022 µM
Cc1ccc(-n2c(SCC(=O)Nc3ccc(C)cc3Br)nnc2C(F)(F)F)cc1,0.0005 µM,1.1 µM,–
Cc1ccc(NC(=O)CSc2nnc(C)n2-c2ccc(F)cc2)c(Cl)c1,2.3 µM,> 10 µM,–
Cc1ccc(-n2c(C)nnc2SCC(=O)Nc2ccc(Oc3ccccc3)cc2)cc1,1.1 µM,> 10 µM,–
Cc1ccc(NC(=O)CSc2nnc(C)n2-c2ccccc2Cl)c(Cl)c1,0.008 µM,0.1 µM,–
Cc1ccc(-n2c(C)nnc2SCC(=O)Nc2ccc(Cl)cc2Cl)cc1,0.005 µM,–,–
Cc1ccc(NC(=O)CSc2nnc(C)n2-c2cccc(C(F)(F)F)c2)c(Cl)c1,> 0.6 µM,–,–
Cc1ccc(-n2c(C)nnc2SCC(=O)Nc2ccccc2C(F)(F)F)cc1,0.007 µM,> 10 µM,–
NS(=O)(=O)c1ccc(NC(=O)CSc2nnc(C(F)(F)F)n2-c2cccc3ccccc23)c(Cl)c1,0.0005 µM,–,0.049 µM
Cc1ccc2c(-n3c(C)nnc3SCC(=O)Nc3ccccc3Br)ccc(C)c2c1,0.0005 µM,–,0.15 µM
Cc1ccc(-n2c(C)nnc2SCC(=O)Nc2ccc(Cl)cc2)cc1,0.4 µM,> 10 µM,–
Cc1ccc(-n2c(C)nnc2SCC(=O)Nc2cc(Cl)ccc2Cl)cc1,0.1 µM,–,–
Cc1ccc2ccc(C)c(-n3c(SCC(=O)Nc4ccc(S(N)(=O)=O)cc4Cl)nnc3C(F)(F)F)c2c1,0.003 µM,–,0.026 µM
Cc1ccc2c(C)ccc(-n3c(C)nnc3SCC(=O)Nc3ccc(S(N)(=O)=O)cc3Cl)c2n1,0.0006 µM,–,0.015 µM
Cc1nnc(SCC(=O)Nc2ccccc2Br)n1-c1cccc2ccccc12,0.002 µM,–,0.72 µM
